From EP0908457B1, “3-(1,2-benzisothiazol- and isoxazol-5-Y1)-2,4(1H,3H)-pyrimidinedione or thione and 3-(1,2-benzisothiazol- and isoxazol-5-y1)-4(3H)-pyrimidinone or thione herbicidal agents” (BASF AKTIENGESELLSCHAFT, priority 1997, dated 1999)

How the values were obtained:
[1] = tested on: Echinochloa oryzoides (Ard.) Fritsch.; experiment: Preemergence weed control under flooded paddy conditions, ECHORC (Watergrass (Calif.)); type: in vivo; conditions: flooded paddy, rated three to four weeks after treatment; on herbicidal effect rating, ECHORC: meaning of each grade not given here
Cyperus iria = experiment: Preemergence weed control under flooded paddy conditions, CYPIR (Rice Flatsedge); type: in vivo; conditions: flooded paddy, rated three to four weeks after treatment; on herbicidal effect rating, CYPIR: meaning of each grade not given here
[2] = tested on: Cyperus serotinus, Rottb.; experiment: Preemergence weed control under flooded paddy conditions, CYPSE (Flatsedge); type: in vivo; conditions: rated three to four weeks after treatment; on herbicidal effect rating, CYPSE: meaning of each grade not given here
[3] = tested on: Monochoria vaginalis, Presl.; experiment: Preemergence weed control under flooded paddy conditions, MOOVA (Monochoria); type: in vivo; conditions: flooded paddy, rated three to four weeks after treatment; on herbicidal effect rating, MOOVA: meaning of each grade not given here
Sagittaria pygmaea, L. = experiment: Preemergence weed control under flooded paddy conditions, SAGPY (Arrowhead (Pygmaea)); type: in vivo; conditions: flooded paddy, rated three to four weeks after treatment; on herbicidal effect rating, SAGPY: meaning of each grade not given here
[4] = tested on: Oryza sativa, (L.) Tebonnet; experiment: Rice tolerance to post-transplant applications under flooded paddy conditions (Example 187), ORYSAT (Rice, Tebonnet); conditions: rated three to four weeks after treatment
[5] = Rate 0.0320 kg/ha, preemergence weeds
[6] = Rate 0.0620 kg/ha, preemergence weeds
[7] = Rate 0.1250 kg/ha, preemergence weeds
[8] = Rate 0.2500 kg/ha, preemergence weeds
[9] = Rate 0.0320 kg/ha, preemergence
[10] = Rate 0.0620 kg/ha, preemergence
[11] = Rate 0.1250 kg/ha, preemergence
[12] = Rate 0.2500 kg/ha, preemergence
[13] = Rate 0.5000 kg/ha, preemergence

## CC(C)c1nsc2ccc(-n3c(=O)cc(C(F)(F)F)n(C)c3=O)cc12 [Example 499, 2,4(1H,3H)-Pyrimidinedione, 3-(3-isopropyl-1,2-benzisothiazol-5-yl)-1-methyl-6-(trifluoromethyl)-]
[1]; 0.0320 kg/ha, preemergence
  ECHORC herbicidal rating: 7.5
[1]; 0.0620 kg/ha, preemergence
  ECHORC herbicidal rating: 9.0
[1]; 0.1250 kg/ha, preemergence
  ECHORC herbicidal rating: 9.0
[1]; 0.2500 kg/ha, preemergence
  ECHORC herbicidal rating: 9.0
Cyperus iria; 0.0320 kg/ha, preemergence
  CYPIR herbicidal rating: 8.0
Cyperus iria; 0.0620 kg/ha, preemergence
  CYPIR herbicidal rating: 9.0
Cyperus iria; 0.1250 kg/ha, preemergence
  CYPIR herbicidal rating: 9.0
Cyperus iria; 0.2500 kg/ha, preemergence
  CYPIR herbicidal rating: 9.0
[2]; 0.0320 kg/ha, preemergence
  CYPSE herbicidal rating: 9.0
[2]; 0.0620 kg/ha, preemergence
  CYPSE herbicidal rating: 9.0
[2]; 0.1250 kg/ha, preemergence
  CYPSE herbicidal rating: 9.0
[2]; 0.2500 kg/ha, preemergence
  CYPSE herbicidal rating: 9.0
[3]; 0.0320 kg/ha, preemergence
  MOOVA herbicidal rating: 8.0
[3]; 0.0620 kg/ha, preemergence
  MOOVA herbicidal rating: 9.0
[3]; 0.1250 kg/ha, preemergence
  MOOVA herbicidal rating: 9.0
[3]; 0.2500 kg/ha, preemergence
  MOOVA herbicidal rating: 9.0
Sagittaria pygmaea, L.; 0.0320 kg/ha, preemergence
  SAGPY herbicidal rating: 8.0
Sagittaria pygmaea, L.; 0.0620 kg/ha, preemergence
  SAGPY herbicidal rating: 9.0
Sagittaria pygmaea, L.; 0.1250 kg/ha, preemergence
  SAGPY herbicidal rating: 9.0
Sagittaria pygmaea, L.; 0.2500 kg/ha, preemergence
  SAGPY herbicidal rating: 9.0
[4]; 0.0320 kg/ha
  ORYSAT herbicidal rating (rice tolerance): 6.5
[4]; 0.0620 kg/ha
  ORYSAT herbicidal rating (rice tolerance): 8.0
[4]; 0.1250 kg/ha
  ORYSAT herbicidal rating (rice tolerance): 7.5
[4]; 0.2500 kg/ha
  ORYSAT herbicidal rating (rice tolerance): 9.0

## COc1ccc(C(C)C)cc1-c1nsc2ccc(-n3c(=O)cc(C(F)(F)F)n(C)c3=O)cc12 [Example 46, 3-[3-(5-Isopropyl-2-methoxyphenyl)-1,2-benzisothiazol-5-yl]-1-methyl-6-(trifluoromethyl)-2,4(1H,3H)-pyrimidinedione]
[1]; 0.0313 kg/ha, preemergence
  herbicidal effect rating, ECHORC: 9.0
[1]; 0.0625 kg/ha, preemergence
  herbicidal effect rating, ECHORC: 9.0
[1]; 0.1250 kg/ha, preemergence
  herbicidal effect rating, ECHORC: 9.0
[1]; 0.2500 kg/ha, preemergence
  herbicidal effect rating, ECHORC: 9.0
Cyperus iria; 0.0313 kg/ha, preemergence
  herbicidal effect rating, CYPIR: 2.0
Cyperus iria; 0.0625 kg/ha, preemergence
  herbicidal effect rating, CYPIR: 6.0
Cyperus iria; 0.1250 kg/ha, preemergence
  herbicidal effect rating, CYPIR: 9.0
Cyperus iria; 0.2500 kg/ha, preemergence
  herbicidal effect rating, CYPIR: 9.0
[2]; 0.0313 kg/ha, preemergence
  herbicidal effect rating, CYPSE: 0.0
[2]; 0.0625 kg/ha, preemergence
  herbicidal effect rating, CYPSE: 0.0
[2]; 0.2500 kg/ha, preemergence
  herbicidal effect rating, CYPSE: 2.0
[3]; 0.0313 kg/ha, preemergence
  herbicidal effect rating, MOOVA: 9.0
[3]; 0.0625 kg/ha, preemergence
  herbicidal effect rating, MOOVA: 9.0
[3]; 0.1250 kg/ha, preemergence
  herbicidal effect rating, MOOVA: 9.0
[3]; 0.2500 kg/ha, preemergence
  herbicidal effect rating, MOOVA: 9.0
Sagittaria pygmaea, L.; 0.0313 kg/ha, preemergence
  herbicidal effect rating, SAGPY: 0.0
Sagittaria pygmaea, L.; 0.0625 kg/ha, preemergence
  herbicidal effect rating, SAGPY: 0.0
Sagittaria pygmaea, L.; 0.1250 kg/ha, preemergence
  herbicidal effect rating, SAGPY: 2.0
Sagittaria pygmaea, L.; 0.2500 kg/ha, preemergence
  herbicidal effect rating, SAGPY: 7.0
[4]; 0.0313 kg/ha
  herbicidal effect rating, ORYSAT (rice tolerance): 1.0
[4]; 0.0625 kg/ha
  herbicidal effect rating, ORYSAT (rice tolerance): 1.0
[4]; 0.1250 kg/ha
  herbicidal effect rating, ORYSAT (rice tolerance): 2.0
[4]; 0.2500 kg/ha
  herbicidal effect rating, ORYSAT (rice tolerance): 3.0

## Cn1c(C(F)(F)F)cc(=O)n(-c2ccc3snc(C(=O)NS(C)(=O)=O)c3c2)c1=O [Example 323, 1,2-Benzisothiazole-3-carboxamide, 5-[3,6-dihydro-3-methyl-2,6-dioxo-4-(trifluoromethyl)-1(2H)-pyrimidinyl]-N-(methylsulfonyl)-]
[1]; [5]
  herbicidal effect rating, ECHORC: 4.5
[1]; [6]
  herbicidal effect rating, ECHORC: 6.5
[1]; [7]
  herbicidal effect rating, ECHORC: 8.0
[1]; [8]
  herbicidal effect rating, ECHORC: 8.0
Cyperus iria; [5]
  herbicidal effect rating, CYPIR: 3.5
Cyperus iria; [6]
  herbicidal effect rating, CYPIR: 4.5
Cyperus iria; [7]
  herbicidal effect rating, CYPIR: 8.0
Cyperus iria; [8]
  herbicidal effect rating, CYPIR: 8.0
[2]; [5]
  herbicidal effect rating, CYPSE: 5.0
[2]; [6]
  herbicidal effect rating, CYPSE: 6.0
[2]; [7]
  herbicidal effect rating, CYPSE: 6.5
[2]; [8]
  herbicidal effect rating, CYPSE: 7.5
[3]; [5]
  herbicidal effect rating, MOOVA: 8.0
[3]; [6]
  herbicidal effect rating, MOOVA: 9.0
[3]; [7]
  herbicidal effect rating, MOOVA: 9.0
[3]; [8]
  herbicidal effect rating, MOOVA: 9.0
Sagittaria pygmaea, L.; [5]
  herbicidal effect rating, SAGPY: 0.0
Sagittaria pygmaea, L.; [6]
  herbicidal effect rating, SAGPY: 3.5
Sagittaria pygmaea, L.; [7]
  herbicidal effect rating, SAGPY: 3.5
Sagittaria pygmaea, L.; [8]
  herbicidal effect rating, SAGPY: 9.0
[4]; Rate 0.0320 kg/ha
  herbicidal effect rating ORYSAT: 3.5
[4]; Rate 0.0620 kg/ha
  herbicidal effect rating ORYSAT: 5.0
[4]; Rate 0.1250 kg/ha
  herbicidal effect rating ORYSAT: 6.0
[4]; Rate 0.2500 kg/ha
  herbicidal effect rating ORYSAT: 7.5

## Cc1ccc(OCC(=O)NS(=O)(=O)c2c(C)noc2C)c(-c2nsc3ccc(-n4c(=O)cc(C(F)(F)F)n(C)c4=O)cc23)c1 [Example 270, Acetamide, 2-{{2-{5-[3,6-dihydro-3-methyl-2,6-dioxo-4-(trifluoromethyl)-1(2H)-pyrimidinyl]-1,2-benzisothiazol-3-yl}-p-tolyl}oxy}-N-[(3,5-dimethylisoxazol-4-yl)sulfonyl]-]
[1]; [9]
  ECHORC herbicidal effect rating: 1.3
[1]; [10]
  ECHORC herbicidal effect rating: 2.7
[1]; [11]
  ECHORC herbicidal effect rating: 4.3
[1]; [12]
  ECHORC herbicidal effect rating: 9.0
[1]; [13]
  ECHORC herbicidal effect rating: 9.0
Cyperus iria; [9]
  CYPIR herbicidal effect rating: 8.0
Cyperus iria; [10]
  CYPIR herbicidal effect rating: 9.0
Cyperus iria; [11]
  CYPIR herbicidal effect rating: 9.0
Cyperus iria; [12]
  CYPIR herbicidal effect rating: 9.0
Cyperus iria; [13]
  CYPIR herbicidal effect rating: 9.0
[2]; [9]
  CYPSE herbicidal effect rating: 0.0
[2]; [10]
  CYPSE herbicidal effect rating: 0.0
[2]; [11]
  CYPSE herbicidal effect rating: 7.0
[2]; [12]
  CYPSE herbicidal effect rating: 9.0
[2]; [13]
  CYPSE herbicidal effect rating: 3.0
[3]; [9]
  MOOVA herbicidal effect rating: 9.0
[3]; [10]
  MOOVA herbicidal effect rating: 9.0
[3]; [11]
  MOOVA herbicidal effect rating: 9.0
[3]; [12]
  MOOVA herbicidal effect rating: 9.0
[3]; [13]
  MOOVA herbicidal effect rating: 9.0
Sagittaria pygmaea, L.; [9]
  SAGPY herbicidal effect rating: 0.0
Sagittaria pygmaea, L.; [10]
  SAGPY herbicidal effect rating: 0.0
Sagittaria pygmaea, L.; [11]
  SAGPY herbicidal effect rating: 0.0
Sagittaria pygmaea, L.; [12]
  SAGPY herbicidal effect rating: 0.0
Sagittaria pygmaea, L.; [13]
  SAGPY herbicidal effect rating: 5.0
[4]; Rate 0.0320 kg/ha
  ORYSAT herbicidal effect rating: 4.0
[4]; Rate 0.0620 kg/ha
  ORYSAT herbicidal effect rating: 4.0
[4]; Rate 0.1250 kg/ha
  ORYSAT herbicidal effect rating: 7.0
[4]; Rate 0.2500 kg/ha
  ORYSAT herbicidal effect rating: 8.0
[4]; Rate 0.5000 kg/ha
  ORYSAT herbicidal effect rating: 2.0

## Cn1c(C(F)(F)F)cc(=O)n(-c2ccc3snc(C(C#N)=Cc4ccc[nH]4)c3c2)c1=O [Example 598, 1,2-Benzisothiazole-3-acetonitrile, 5-[3,6-dihydro-3-methyl-2,6-dioxo-4-(trifluoromethyl)-1(2H)-pyrimidinyl]-alpha-(pyrrol-2-ylmethylene)-]
[1]; [9]
  herbicidal effect rating, ECHORC: 0.0
[1]; [10]
  herbicidal effect rating, ECHORC: 0.0
[1]; [11]
  herbicidal effect rating, ECHORC: 0.0
[1]; [12]
  herbicidal effect rating, ECHORC: 0.0
Cyperus iria; [9]
  herbicidal effect rating, CYPIR: 0.0
Cyperus iria; [10]
  herbicidal effect rating, CYPIR: 0.0
Cyperus iria; [11]
  herbicidal effect rating, CYPIR: 2.0
Cyperus iria; [12]
  herbicidal effect rating, CYPIR: 3.0
[2]; [9]
  herbicidal effect rating, CYPSE: 0.0
[2]; [12]
  herbicidal effect rating, CYPSE: 0.0
[3]; [11]
  herbicidal effect rating, MOOVA: 7.0
[3]; [12]
  herbicidal effect rating, MOOVA: 7.0
Sagittaria pygmaea, L.; [9]
  herbicidal effect rating, SAGPY: 0.0
Sagittaria pygmaea, L.; [10]
  herbicidal effect rating, SAGPY: 0.0
Sagittaria pygmaea, L.; [11]
  herbicidal effect rating, SAGPY: 0.0
Sagittaria pygmaea, L.; [12]
  herbicidal effect rating, SAGPY: 0.0
[4]; Rate 0.0320 kg/ha
  herbicidal effect rating ORYSAT: 0.0
[4]; Rate 0.0620 kg/ha
  herbicidal effect rating ORYSAT: 0.0
[4]; Rate 0.1250 kg/ha
  herbicidal effect rating ORYSAT: 3.0
[4]; Rate 0.2500 kg/ha
  herbicidal effect rating ORYSAT: 3.0
